From patent publication US20060276440A1, “Treatment of inflammatory disorders” (priority 2005, published 2006)
Entries after “also recorded” stand apart in the source; their conditions may differ. Where two headings read alike, the source gives them in different places. Values belong to the molecule of their own block, whether it stands above or below them.

Tests used:
Format in all cases: cell-based, human
MMP-13 = test: IL-1/OSM-stimulated pro-MMP-13 production in SW-1353 cells (ELISA); settings: for IC50: Homo sapiens; for effect on OSM/IL-1-mediated pro-MMP-13 production: up to 1.5 μM
Text: To test the compounds identified in the preliminary reporter (luciferase) activity […]® line 4A1 screen for inhibition of OSM signaling in a more physiologically relevant environment, a human cell line involved in an inflammatory disease was adapted. The human cartilage cell line SW-1353 was selected.
In the human cartilage cell line SW-1353, while IL-1 is believed to activate expression of collagenases to a small degree and OSM is believed to have no effect on collagenase expression, a combination of IL-1 and OSM is believed to lead to a synergistic activation of collagenases to much higher levels (S. Cowell et al., Biochem J 331 (Pt 2), 453 (Apr. 15, 1998). Regulation of MMP-13 in SW-1353 cells is, therefore, believed to provide a biomarker which can be used to monitor IL-1/OSM-mediated signal transduction events in secondary assays.
(§1) The same supernatants of culture media used in the primary screen were assayed for IL-1/OSM-stimulated pro-MMP-13 production and MMP-2 production by enzyme-linked immunosorbent assay (ELISA).
(§2) For matrix metalloproteinase (MMP) measures, SW1353 cells were grown to confluence in 24 well plates, washed in DMEM (with Ham's F12) and placed in 500 ul of serum free DMEM/F-12 with 0.2% lactalbumin hydrosylate with and without OsM/IL-1. After 24 hrs, supernatants were collected and the amounts of proMMP13, totalMMP2, and proMMP1 were measured using Quantikine® ELISA kit for human MMPs (R & D systems, Minneapolis, Minn.). All MMP measures were normalized to viable cell numbers based on a tetrazolium (MTS) colorimetric measure (Promega, Madison, Wis.).

OSM signaling = test: […] 4A1 cell line (A549) OSM-stimulated luciferase reporter assay; settings: for IC50: Homo sapiens, A549; for effect on OSM-mediated reporter activity: up to 1.5 μM
Experimental: Cell line 4A1 was established in A549 cells (a human lung cancer cell line) using BV32, a vector that carries both the luciferase and GFP reporters. Assay development was performed to optimize the conditions of the OSM-response in the 4A1 […]® line.
(§3) Reporter activities of Sentinel® clones were measured using the Steady-Glo® Luciferase assay system (Promega, Madison, Wis.), according to the manufacturer's instructions, and were normalized to cell numbers based on nucleic acid quantification (CyQuant® cell proliferations assay, Molecular Probes/Invitrogen, Carlsbad, Calif.). In order to identify potential anti-inflammatory compounds, the OSM-responding Sentinel® clone 4A1 was used for a library screen of approximately 1800 compounds.

MMP-2 = MMP-2 production in SW1353 cells (ELISA, control); settings: SW-1353; FIG. 5
Experimental: MMP-2 production can be used as control for the potential side-effects of compounds. This is because MMP-2 levels are not believed to change in response to IL-1/OSM.
as §1, §2
Multiple control assays were performed to investigate the selectivity of CA4 action. Matrix metalloproteinase-2 (MMP-2) production in SW1353 cells was tested. Mutation of MMP-2 causes a multicentric osteolysis and arthritis syndrome (Martignetti et al., Nat Genet 28, 261-265 (2001) the entire contents of which are incorporated herein by reference), and theoretically its expression should not be affected in treating RA. CA4 at approximately 110 nM had no effect on production of MMP-2 (FIG. 12E). An A549 Sentinel line that responded to TGF-β was then tested.

4A1 reporter activity = test: Activation of 4A1 Sentinel luciferase reporter by cytokines; settings: for maximum activation of 4A1 luciferase reporter over background / EC50, induced reporter activity of 4A1: 4A1 cells; for EC50, induced reporter activity of 4A1: IL-1; for stimulatory effect on 4A1 reporter activity: other gp-130-binding cytokine family members, data not shown
Experimental: as §3
Sentinel lines were developed by utilizing promoter trapping technology in combination with positive and negative selections to efficiently deliver reporter genes into endogenously regulated genetic sites. Using this approach, a Sentinel cell line, 4A1, in A549 lung carcinoma cells that responded specifically to OSM and IL-1 stimulation among a panel of cytokines and active compounds was established (FIG. 9A).
OSM dose-dependently activated the luciferase reporter activity of 4A1 5-7 folds over background with EC50 of approximately 50 ng/ml (FIGS. 9A and B). […] When OSM and IL-1 were added together to 4A1 cells, the reporter activity appeared to be moderately more than the sum of individual activities obtained when OSM and IL-1 added separately (FIG. 9D). However, the luciferase activity of 4A1 appeared to respond predominantly to OSM, because OSM typically produced 5-7-fold maximum activation whereas IL-1 only produced 2-fold maximum activation (FIGS. 9B and C).

[1] = 4A1 cell line, primary screen (Table 1), read-out: IC50, inhibition of OSM-stimulated (luciferase) reporter activity
[2] = SW1353 cells, mean (Examples 8, 10), read-out: IC50 values by pro-MMP-13 (OSM/IL-1-mediated production)
[3] = 4A1 cells, mean (Examples 7, 10), read-out: IC50 values by luciferase reporter activity (OSM-stimulated)

Molecule: COc1cc2c(c(OC)c1OC)-c1ccc(OC)c(=O)cc1[C@@H](NC(C)=O)CC2 (atropisomer, axis not shown) [Colchicine (4), colchicine]
reduction of signal (MMP-13 secondary assay) (MMP-13; at 4 μM, SW-1353): approximately 83%

Molecule: C=C1C(=O)[C@@]23[C@H](O)C[C@@H]4C(C)(C)CC[C@H](O)[C@@]4(CO)[C@@H]2CC[C@@H]1[C@H]3O [Kamebakaurin, reference compound]
effect of pathway inhibitors on OSM-stimulated reporter activity (OSM signaling; 4A1 cells, FIG. 10A-E): inhibited the reporter activity in a dose-dependent manner

Molecule: COC(=O)Nc1nc2ccc(C(=O)c3cccs3)cc2[nH]1 [Nocodazole, reference compound]
IC50 (MMP-13; [2]): > 400 nM
IC50 (OSM signaling; [3]): 104 nM

Molecule: COc1cccc(-c2cc(=O)c3ccccc3o2)c1N [PD98059, reference compound]
effect of pathway inhibitors on OSM-stimulated reporter activity (OSM signaling; 4A1 cells, FIG. 10A-E): inhibited the reporter activity in a dose-dependent manner

Molecule: COc1cc([C@@H]2c3cc4c(cc3[C@H](O)[C@H]3COC(=O)[C@H]23)OCO4)cc(OC)c1OC [Podophyllotoxin, reference compound]
IC50 (MMP-13; [2]): 54.9 nM
IC50 (OSM signaling; [3]): 277 nM

Molecule: C[S+]([O-])c1ccc(-c2nc(-c3ccncc3)c(-c3ccc(F)cc3)[nH]2)cc1 (stereo not shown) [SB203580, reference compound]
effect of pathway inhibitors on OSM-stimulated reporter activity (OSM signaling): inhibited the reporter activity in a dose-dependent manner

Molecule: CC(=O)O[C@H]1C(=O)[C@@]2(C)[C@H]([C@H](OC(=O)c3ccccc3)[C@]3(O)C[C@H](OC(=O)[C@H](O)[C@@H](NC(=O)c4ccccc4)c4ccccc4)C(C)=C1C3(C)C)[C@]1(OC(C)=O)CO[C@@H]1C[C@@H]2O [Taxol, reference compound]
effect on MMP-13 production (MMP-13; data not shown): no effect
effect on 4A1 reporter activity (OSM signaling; under 200 nM, data not shown): dose-dependently inhibited

Molecule: JAK inhibitor I [reference compound]
effect of pathway inhibitors on OSM-stimulated reporter activity (OSM signaling; 4A1 cells, FIG. 10A-E): inhibited the reporter activity in a dose-dependent manner

Molecule: cytochalacin B [reference compound]
effect on OSM/IL-1-mediated pro-MMP-13 production (MMP-13; SW1353 cells, data not shown): did not have effect
effect on OSM-mediated reporter activity (OSM signaling; 4A1 cells, data not shown): did not have effect

Molecule: cytochalacin D [reference compound]
effect on OSM/IL-1-mediated pro-MMP-13 production (MMP-13; SW1353 cells, data not shown): did not have effect
effect on OSM-mediated reporter activity (OSM signaling; 4A1 cells, data not shown): did not have effect

B1: IL-11: member of the gp-130-binding cytokine family (protein, UniProt P20809 22-199, looked up)
Interleukin-11: PGPPPGPPRVSPDPRAELDSTVLLTRSLLADTRQLAAQLRDKFPADGDHNLDSLPTLAMSAGALGALQLPGVLTRLRADLLSYLRHVQWLRRAGGSSLKTLEPELGTLQARLDRLLRRLQLLMSRLALPQPPPDPPAPPLAPPSSAWGGIRAAHAILGGLHLTLDWAVRGLLLLKTRL
stimulatory effect on 4A1 reporter activity (4A1 reporter activity): no stimulatory effect

B2: CT-1: member of the gp-130-binding cytokine family (protein, UniProt Q16619 1-201, looked up)
Cardiotrophin-1: MSRREGSLEDPQTDSSVSLLPHLEAKIRQTHSLAHLLTKYAEQLLQEYVQLQGDPFGLPSFSPPRLPVAGLSAPAPSHAGLPVHERLRLDAAALAALPPLLDAVCRRQAELNPRAPRLLRRLEDAARQARALGAAVEALLAALGAANRGPRAEPPAATASAASATGVFPAKVLGLRVCGLYREWLSRTEGDLGQLLPGGSA
stimulatory effect on 4A1 reporter activity (4A1 reporter activity): no stimulatory effect

Now from value to molecule, other results behind:

IC50 (OSM signaling; [1]): 3700 nM
Molecule: O=c1oc2ccccc2c(O)c1Cc1c(O)c2ccccc2oc1=O [Dicumarol (11), 4-hydroxy-3-((4-hydroxy-2-oxo-2H-chromen-3-yl)methyl)-2H-chromen-2-one]

IC50 (OSM signaling; [1]): 3500 nM
Molecule: C/C=C(/C(=C/C)c1ccc(O)cc1)c1ccc(O)cc1 [Dienestrol (10), 4-((2E,4E)-4-(4-hydroxyphenyl)hexa-2,4-dien-3-yl)phenol]

IC50 (OSM signaling; [1]): 800 nM
Molecule: COC(=O)Nc1nc2cc(Sc3ccccc3)ccc2[nH]1 [Fenbendazole (6), [5-(phenylthio)-1H-benzimidazol-2-yl]carbamic acid methyl ester]

IC50 (OSM signaling; [1]): 400 nM
Molecule: Clc1ccc2ncnc(NCc3ccc4c(c3)OCO4)c2c1 [MBCQ (5), 4-[[3,4-(Methylenedioxy)benzyl]amino]-6-chloroquinazoline]

IC50 (OSM signaling; [1]): 20 nM
Molecule: COc1c(C)c2c(c(O)c1C/C=C(\C)CCC(=O)O)C(=O)OC2 [Mycophenolic acid (3), 6-(4-Hydroxy-6-methoxy-7-methyl-3-oxo-5-phthalanyl)-4-methyl-4-hexenoic acid]

IC50 (MMP-13; SW1353, SW-1353, IL-1/OSM-stimulated, secondary screen (Example 2), read-out: IC50, inhibition of MMP-13 (pro-MMP-13) production): 32000 nM
Molecule: Cc1ccc(C(=O)Cn2c3c(sc2=N)CCCC3)cc1 [Pifithrine-alpha (12), 2-(2-imino-4,5,6,7-tetrahydrobenzothiazol-3-yl)-1-p-tolylethanone]
inhibitory effect on MMP-13 expression compared to MMP-2 expression (MMP-2): greater inhibitory effects on MMP-13 expression compared to MMP-2 expression; also recorded: preferentially inhibit MMP-13 expression compared to MMP-2 expression

IC50 (MMP-13; [2]): 11.6 ± 5.2 nM
IC50 (OSM signaling; [3]): 3.4 ± 0.6 nM
Molecule: CC[C@]1(O)C[C@@H]2CN(CCc3c([nH]c4ccccc34)[C@@](C(=O)OC)(c3cc4c(cc3OC)N(C)[C@H]3[C@@](O)(C(=O)OC)[C@H](OC(C)=O)[C@]5(CC)C=CCN6CC[C@]43[C@@H]65)C2)C1 [Vinbalstine, vinblastine, reference compound]

IC50 (OSM signaling; [1]): 1900 nM
Molecule: CC1CCC2(C)CCC3C(=CCC4(C)C3CCC3C(C)(C(=O)O)C(C)CCC34C)C2C1C (stereo not drawn) [β-boswellic acid (7), 1,2,3,4,4a, 5,6,6a, 6b, 7,8,8a, 9, 10, 11, 12, 12a, 14, 14a, 14b-icosahydro-3,4,8a,11,12,14a,14b-heptamethylpicene-4-carboxylic acid]

maximum activation of 4A1 luciferase reporter over background (4A1 reporter activity): 2 fold
EC50, induced reporter activity of 4A1 (4A1 reporter activity): 0.028 ± 0.01 ng/mL
EC50, induced reporter activity of 4A1 (4A1 reporter activity; listed as IL-1): 0.028 ng/mL
Molecule: IL-1β: cytokine from Peprotech used to stimulate cells

stimulatory effect on 4A1 reporter activity (4A1 reporter activity): no stimulatory effect
Molecule: IL-6: member of the gp-130-binding cytokine family

stimulatory effect on 4A1 reporter activity (4A1 reporter activity): no stimulatory effect
Molecule: LIF: member of the gp-130-binding cytokine family

maximum activation of 4A1 luciferase reporter over background (4A1 reporter activity): 5-7 fold
Molecule: OSM: proinflammatory cytokine, 28-kD glycoprotein of the gp130-binding cytokine family

stimulatory effect on 4A1 reporter activity (4A1 reporter activity): no stimulatory effect
B3: CNTF: member of the gp-130-binding cytokine family (protein, UniProt P26441 1-200, looked up)
Ciliary neurotrophic factor: MAFTEHSPLTPHRRDLCSRSIWLARKIRSDLTALTESYVKHQGLNKNINLDSADGMPVASTDQWSELTEAERLQENLQAYRTFHVLLARLLEDQQVHFTPTEGDFHQAIHTLLLQVAAFAYQIEELMILLEYKIPRNEADGMPINVGDGGLFEKKLWGLKVLQELSQWTVRSIHDLRFISSHQTGIPARGSHYIANNKKM
